In ChEMBL document CHEMBL1909046, “DrugMatrix in vitro pharmacology data”:

Columns and labels:
[1] = molecular target: Vascular endothelial growth factor receptor 1 (Homo sapiens, UniProt P17948); experiment: biochemical; type: cell-based, HUVEC; settings: huvec; also: in other assays of this panel Not Active means under 50% inhibition at 10 µM
[2] = DRUGMATRIX: GABAA, Muscimol, Central radioligand binding (ligand: [3H] Muscimol); type: cell membranes, Rattus norvegicus, Wistar, Brain, Membrane; settings: Not Active = under 50% inhibition at 10 µM
[3] = DRUGMATRIX: Potassium Channel [KATP] radioligand binding (ligand: [3H] Glyburide); type: cell membranes, Membrane; settings: hit-t15; Not Active = under 50% inhibition at 10 µM
Acetylcholinesterase = Acetylcholinesterase (Homo sapiens, UniProt P22303); experiment: DRUGMATRIX: Acetylcholinesterase enzyme inhibition (substrate: acetylthiocholine); type: cell-based, HEK293; settings: hek293; Not Active = under 50% inhibition at 10 µM
Acetylcholinesterase, sequence (P22303 whole entry): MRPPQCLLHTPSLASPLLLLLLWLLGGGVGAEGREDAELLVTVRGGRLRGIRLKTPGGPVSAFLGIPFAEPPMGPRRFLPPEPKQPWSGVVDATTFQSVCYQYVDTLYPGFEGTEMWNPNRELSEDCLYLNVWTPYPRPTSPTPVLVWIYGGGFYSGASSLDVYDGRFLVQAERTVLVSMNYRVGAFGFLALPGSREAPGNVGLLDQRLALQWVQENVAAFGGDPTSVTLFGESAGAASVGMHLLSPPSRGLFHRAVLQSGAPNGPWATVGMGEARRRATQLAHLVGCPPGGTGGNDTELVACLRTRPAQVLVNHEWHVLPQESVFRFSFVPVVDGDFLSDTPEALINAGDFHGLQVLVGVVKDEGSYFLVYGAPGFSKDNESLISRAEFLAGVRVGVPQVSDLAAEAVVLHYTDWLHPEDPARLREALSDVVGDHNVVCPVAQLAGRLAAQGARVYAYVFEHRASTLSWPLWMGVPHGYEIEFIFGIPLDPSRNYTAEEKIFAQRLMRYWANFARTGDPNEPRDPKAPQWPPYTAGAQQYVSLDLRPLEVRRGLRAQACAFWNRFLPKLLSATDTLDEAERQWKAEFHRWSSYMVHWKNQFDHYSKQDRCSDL

Mu-type opioid receptor = Mu-type opioid receptor (Homo sapiens, UniProt P35372); experiment: DRUGMATRIX: Opiate mu (OP3, MOP) radioligand binding (ligand: [3H] Diprenorphine); type: cell membranes, CHO-K1, Membrane; settings: cho-k1; Not Active = under 50% inhibition at 10 µM
Mu-type opioid receptor, sequence (P35372 whole entry): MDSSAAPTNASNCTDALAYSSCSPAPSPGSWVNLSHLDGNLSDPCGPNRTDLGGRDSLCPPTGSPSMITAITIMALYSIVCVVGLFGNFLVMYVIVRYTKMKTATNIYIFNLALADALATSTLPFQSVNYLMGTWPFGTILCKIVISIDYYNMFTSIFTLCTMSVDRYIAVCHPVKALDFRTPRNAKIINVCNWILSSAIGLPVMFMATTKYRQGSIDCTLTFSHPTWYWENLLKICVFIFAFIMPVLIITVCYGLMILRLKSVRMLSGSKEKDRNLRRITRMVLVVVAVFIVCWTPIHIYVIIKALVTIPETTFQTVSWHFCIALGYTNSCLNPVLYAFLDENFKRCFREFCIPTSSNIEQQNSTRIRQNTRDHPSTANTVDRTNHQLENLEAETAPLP

Vascular endothelial growth factor receptor 1, sequence (P17948 whole entry): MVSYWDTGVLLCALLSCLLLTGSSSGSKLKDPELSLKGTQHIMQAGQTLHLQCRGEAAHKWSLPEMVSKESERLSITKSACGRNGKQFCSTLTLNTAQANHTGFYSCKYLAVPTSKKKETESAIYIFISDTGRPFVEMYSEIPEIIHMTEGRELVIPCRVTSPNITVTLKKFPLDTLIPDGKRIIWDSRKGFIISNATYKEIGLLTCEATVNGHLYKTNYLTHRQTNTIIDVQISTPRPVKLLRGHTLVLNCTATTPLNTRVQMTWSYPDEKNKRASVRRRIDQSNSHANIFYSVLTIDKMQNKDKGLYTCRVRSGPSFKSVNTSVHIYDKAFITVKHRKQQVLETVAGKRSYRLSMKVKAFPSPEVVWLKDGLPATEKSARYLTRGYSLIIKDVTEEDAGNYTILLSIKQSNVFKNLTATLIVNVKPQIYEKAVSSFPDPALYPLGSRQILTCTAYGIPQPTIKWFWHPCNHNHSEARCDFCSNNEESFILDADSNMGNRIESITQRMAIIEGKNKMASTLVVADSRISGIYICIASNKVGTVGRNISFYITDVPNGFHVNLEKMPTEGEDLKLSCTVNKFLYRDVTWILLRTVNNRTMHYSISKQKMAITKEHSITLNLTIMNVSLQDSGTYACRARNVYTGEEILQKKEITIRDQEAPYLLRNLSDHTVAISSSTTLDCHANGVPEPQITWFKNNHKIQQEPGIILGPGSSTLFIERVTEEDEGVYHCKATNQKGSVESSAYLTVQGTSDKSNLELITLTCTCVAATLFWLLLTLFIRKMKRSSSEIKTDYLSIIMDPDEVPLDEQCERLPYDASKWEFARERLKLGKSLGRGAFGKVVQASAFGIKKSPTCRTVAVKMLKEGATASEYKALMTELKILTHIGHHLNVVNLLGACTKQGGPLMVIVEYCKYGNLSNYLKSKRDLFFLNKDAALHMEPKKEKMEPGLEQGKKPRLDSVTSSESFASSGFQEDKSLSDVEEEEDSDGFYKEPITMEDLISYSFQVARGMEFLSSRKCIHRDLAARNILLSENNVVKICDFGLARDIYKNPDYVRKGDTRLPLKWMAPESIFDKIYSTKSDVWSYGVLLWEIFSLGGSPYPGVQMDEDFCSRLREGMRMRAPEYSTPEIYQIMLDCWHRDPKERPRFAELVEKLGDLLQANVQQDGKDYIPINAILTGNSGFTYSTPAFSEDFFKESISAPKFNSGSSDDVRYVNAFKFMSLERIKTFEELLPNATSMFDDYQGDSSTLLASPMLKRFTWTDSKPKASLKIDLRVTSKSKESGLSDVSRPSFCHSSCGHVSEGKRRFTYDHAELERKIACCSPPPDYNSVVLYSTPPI

O=C/C=C/c1ccccc1
Not Active: IC50 [1] | IC50 [2] | Ki [2] | IC50 [3] | Ki [3] | IC50 (Acetylcholinesterase)

COc1ccc(C(=O)N2CCCC2=O)cc1
Not Active: IC50 [1] | IC50 [2] | Ki [2] | IC50 (Mu-type opioid receptor) | IC50 [3] | Ki [3] | IC50 (Acetylcholinesterase)

CC[C@H](C)[C@H]1O[C@]2(C=C[C@@H]1C)C[C@@H]1C[C@@H](C/C=C(\C)[C@@H](O[C@H]3C[C@H](OC)[C@@H](O[C@H]4C[C@H](OC)[C@@H](O)[C@H](C)O4)[C@H](C)O3)[C@@H](C)/C=C/C=C3\CO[C@@H]4[C@H](O)C(C)=C[C@@H](C(=O)O1)[C@]34O)O2.CO[C@H]1C[C@H](O[C@H]2[C@H](C)O[C@@H](O[C@@H]3/C(C)=C/C[C@@H]4C[C@@H](C[C@]5(C=C[C@H](C)[C@@H](C(C)C)O5)O4)OC(=O)[C@@H]4C=C(C)[C@@H](O)[C@H]5OC/C(=C\C=C\[C@@H]3C)[C@]54O)C[C@@H]2OC)O[C@@H](C)[C@@H]1O [ABAMECTIN]
Not Active: IC50 [1] | IC50 [2] | Ki [2] | IC50 (Mu-type opioid receptor) | IC50 [3] | Ki [3] | IC50 (Acetylcholinesterase)

NCCCC(O)(P(=O)(O)O)P(=O)(O)O [ALENDRONIC ACID]
Not Active: IC50 [1] | IC50 [2] | Ki [2] | IC50 (Mu-type opioid receptor) | IC50 [3] | Ki [3] | IC50 (Acetylcholinesterase)

Cc1nnc2n1-c1ccc(Cl)cc1C(c1ccccc1)=NC2 [ALPRAZOLAM]
Not Active: IC50 [1] | IC50 [2] | Ki [2] | IC50 [3] | Ki [3] | IC50 (Acetylcholinesterase)

Cn1c(=O)c2[nH]cnc2n(C)c1=O.Cn1c(=O)c2[nH]cnc2n(C)c1=O.NCCN [AMINOPHYLLINE]
Not Active: IC50 [1] | IC50 [2] | Ki [2] | IC50 (Mu-type opioid receptor) | IC50 [3] | Ki [3] | IC50 (Acetylcholinesterase)

CC1(C)S[C@@H]2[C@H](NC(=O)[C@H](N)c3ccccc3)C(=O)N2[C@H]1C(=O)O [AMPICILLIN]
Not Active: IC50 [1] | IC50 [2] | Ki [2] | IC50 (Mu-type opioid receptor) | IC50 [3] | Ki [3] | IC50 (Acetylcholinesterase)

COc1ccc(C2C(=O)c3ccccc3C2=O)cc1 [ANISINDIONE]
Not Active: IC50 [1] | IC50 [2] | Ki [2] | IC50 (Mu-type opioid receptor) | IC50 [3] | Ki [3] | IC50 (Acetylcholinesterase)

O=C1O[C@H]([C@@H](O)CO)C(O)=C1O [ASCORBIC ACID]
Not Active: IC50 [1] | IC50 [2] | Ki [2] | IC50 (Mu-type opioid receptor) | IC50 [3] | Ki [3] | IC50 (Acetylcholinesterase)

CN1[C@@H]2CC[C@H]1C[C@@H](OC(=O)C(CO)c1ccccc1)C2 (stereo partly drawn) [ATROPINE]
Not Active: IC50 [1] | IC50 [2] | Ki [2] | IC50 (Mu-type opioid receptor) | IC50 [3] | Ki [3] | IC50 (Acetylcholinesterase)

O=C(O)CCNC(=O)c1ccccc1 [BETAMIPRON]
Not Active: IC50 [1] | IC50 [2] | Ki [2] | IC50 (Mu-type opioid receptor) | IC50 [3] | Ki [3] | IC50 (Acetylcholinesterase)

Brc1c(NC2=NCCN2)ccc2nccnc12 [BRIMONIDINE]
Not Active: IC50 [1] | IC50 [2] | Ki [2] | IC50 (Mu-type opioid receptor) | IC50 [3] | Ki [3] | IC50 (Acetylcholinesterase)

CN/C(=N\CCSCc1nc[nH]c1C)NC#N [CIMETIDINE]
Not Active: IC50 [1] | IC50 [2] | Ki [2] | IC50 (Mu-type opioid receptor) | IC50 [3] | Ki [3] | IC50 (Acetylcholinesterase)

COc1cc(N)c(Cl)cc1C(=O)NC1CCN(CCCOc2ccc(F)cc2)CC1OC (stereo not drawn) [CISAPRIDE]
Not Active: IC50 [1] | IC50 [2] | Ki [2] | IC50 (Mu-type opioid receptor) | IC50 [3] | Ki [3] | IC50 (Acetylcholinesterase)

Nc1ccn([C@@H]2O[C@H](CO)[C@@H](O)[C@@H]2O)c(=O)n1 [CYTARABINE]
Not Active: IC50 [1] | IC50 [2] | Ki [2] | IC50 (Mu-type opioid receptor) | IC50 [3] | Ki [3] | IC50 (Acetylcholinesterase)

C[C@@H]1C[C@H]2[C@@H]3CCC4=CC(=O)C=C[C@]4(C)[C@@]3(F)[C@@H](O)C[C@]2(C)[C@@]1(O)C(=O)CO [DEXAMETHASONE]
Not Active: IC50 [1] | IC50 [2] | Ki [2] | IC50 (Mu-type opioid receptor) | IC50 [3] | Ki [3] | IC50 (Acetylcholinesterase)

CN(C)CC[C@@H](c1ccc(Cl)cc1)c1ccccn1 [DEXCHLORPHENIRAMINE]
Not Active: IC50 [1] | IC50 [2] | Ki [2] | IC50 (Mu-type opioid receptor) | IC50 [3] | Ki [3] | IC50 (Acetylcholinesterase)

C[C@H]1O[C@@H](n2cc(F)c(=O)[nH]c2=O)[C@H](O)[C@@H]1O [DOXIFLURIDINE]
Not Active: IC50 [1] | IC50 [2] | Ki [2] | IC50 (Mu-type opioid receptor) | IC50 [3] | Ki [3] | IC50 (Acetylcholinesterase)

Cn1c(=O)c2c(ncn2CC(O)CO)n(C)c1=O (stereo not drawn) [DYPHYLLINE]
Not Active: IC50 [1] | IC50 [2] | Ki [2] | IC50 (Mu-type opioid receptor) | IC50 [3] | Ki [3] | IC50 (Acetylcholinesterase)

CC[C@H]1CN2CCc3cc(OC)c(OC)cc3[C@@H]2C[C@@H]1C[C@H]1NCCc2cc(OC)c(OC)cc21 [EMETINE]
Not Active: IC50 [1] | IC50 [2] | Ki [2] | IC50 (Mu-type opioid receptor) | IC50 [3] | Ki [3] | IC50 (Acetylcholinesterase)

COC(=O)CCc1ccc(OCC(O)CNC(C)C)cc1 (stereo not drawn) [ESMOLOL]
Not Active: IC50 [1] | IC50 [2] | Ki [2] | IC50 (Mu-type opioid receptor) | IC50 [3] | Ki [3] | IC50 (Acetylcholinesterase)

CCC1(C)CC(=O)NC1=O (stereo not drawn) [ETHOSUXIMIDE]
Not Active: IC50 [1] | IC50 [2] | Ki [2] | IC50 (Mu-type opioid receptor) | IC50 [3] | Ki [3] | IC50 (Acetylcholinesterase)

C#C[C@]1(OC(C)=O)CC[C@H]2[C@@H]3CCC4=C[C@@H](OC(C)=O)CC[C@@H]4[C@H]3CC[C@@]21C [ETHYNODIOL DIACETATE]
Not Active: IC50 [1] | IC50 [2] | Ki [2] | IC50 (Mu-type opioid receptor) | IC50 [3] | Ki [3] | IC50 (Acetylcholinesterase)

COc1cc([C@@H]2c3cc4c(cc3[C@@H](O[C@@H]3O[C@@H]5CO[C@@H](C)O[C@H]5[C@H](O)[C@H]3O)[C@H]3COC(=O)[C@H]23)OCO4)cc(OC)c1O [ETOPOSIDE]
Not Active: IC50 [1] | IC50 [2] | Ki [2] | IC50 (Mu-type opioid receptor) | IC50 [3] | Ki [3] | IC50 (Acetylcholinesterase)

C=CCc1ccc(O)c(OC)c1 [EUGENOL]
Not Active: IC50 [1] | IC50 [2] | Ki [2] | IC50 (Mu-type opioid receptor) | IC50 [3] | Ki [3] | IC50 (Acetylcholinesterase)

CC(C(=O)O)c1cccc(Oc2ccccc2)c1 (stereo not drawn) [FENOPROFEN]
Not Active: IC50 [1] | IC50 [2] | Ki [2] | IC50 (Mu-type opioid receptor) | IC50 [3] | Ki [3] | IC50 (Acetylcholinesterase)

CC(C)(C)NC(=O)[C@H]1CC[C@H]2[C@@H]3CC[C@H]4NC(=O)C=C[C@]4(C)[C@H]3CC[C@]12C [FINASTERIDE]
Not Active: IC50 [1] | IC50 [2] | Ki [2] | IC50 (Mu-type opioid receptor) | IC50 [3] | Ki [3] | IC50 (Acetylcholinesterase)

Nc1ccn([C@@H]2O[C@H](CO)[C@@H](O)C2(F)F)c(=O)n1 [GEMCITABINE]
Not Active: IC50 [1] | IC50 [2] | Ki [2] | IC50 (Mu-type opioid receptor) | IC50 [3] | Ki [3] | IC50 (Acetylcholinesterase)

N=C(N)NC(=O)Cc1c(Cl)cccc1Cl [GUANFACINE]
Not Active: IC50 [1] | IC50 [2] | Ki [2] | IC50 (Mu-type opioid receptor) | IC50 [3] | Ki [3] | IC50 (Acetylcholinesterase)

NNc1nncc2ccccc12 [HYDRALAZINE]
Not Active: IC50 [1] | IC50 [2] | Ki [2] | IC50 (Mu-type opioid receptor) | IC50 [3] | Ki [3] | IC50 (Acetylcholinesterase)

COc1ccc2[nH]cc(CCNC(C)=O)c2c1 [MELATONIN]
Not Active: IC50 [1] | IC50 [2] | Ki [2] | IC50 (Mu-type opioid receptor) | IC50 [3] | Ki [3] | IC50 (Acetylcholinesterase)

NC(=O)C[S+]([O-])C(c1ccccc1)c1ccccc1 (stereo not drawn) [MODAFINIL]
Not Active: IC50 [1] | IC50 [2] | Ki [2] | IC50 (Mu-type opioid receptor) | IC50 [3] | Ki [3] | IC50 (Acetylcholinesterase)

O=C(O)c1cccnc1Nc1cccc(C(F)(F)F)c1 [NIFLUMIC ACID]
Not Active: IC50 [1] | IC50 [2] | Ki [2] | IC50 (Mu-type opioid receptor) | IC50 [3] | Ki [3] | IC50 (Acetylcholinesterase)

COC(=O)Nc1nc2ccc(C(=O)c3cccs3)cc2[nH]1 [NOCODAZOLE]
Not Active: IC50 [1] | IC50 [2] | Ki [2] | IC50 (Mu-type opioid receptor) | IC50 [3] | Ki [3] | IC50 (Acetylcholinesterase)

COC(=O)Nc1nc2ccc([S+]([O-])c3ccccc3)cc2[nH]1 (stereo not drawn) [OXFENDAZOLE]
Not Active: IC50 [1] | IC50 [2] | Ki [2] | IC50 (Mu-type opioid receptor) | IC50 [3] | Ki [3] | IC50 (Acetylcholinesterase)
